Measurements: publication PMC8623418, “Novel Multitarget Hydroxamic Acids with a Natural Origin CAP Group against Alzheimer’s Disease: Synthesis, Docking and Biological Evaluation” (Pharmaceutics, 2021)

What was measured:
5xFAD transgenic mice = assay: Open field test in 5xFAD mice; format: in vivo; details: 15 mg/kg i.p. for 20 days, 11-month-old male 5xFAD mice
Method: All animal procedures were approved by the Animal Care and Use Committee of IPAC RAS. For in vivo studies, 11-month-old male mice of the 5xFAD line (Tg(APPSwFlLon,PSEN1*M146L*L286V) 6799Vas/J) were used. The animals were housed in cages with free access to water and food in a room with a 12 h/12 h light–dark cycle, at a temperature of 23 ± 1 °C and humidity of 50 ± 5%. Before the series of experiments, animals were randomly divided into four groups (n = 8 per group): (1) wild-type group (C57BL6/j mouse line); (2) 5xFAD group; (3) 5xFAD + 15 group; and (4) 5xFAD + 25 group.
Both compounds 15 and 25 were dissolved in saline solution and DMSO (10%) immediately before use and intraperitoneally administered to animals for 20 days at a dose of 15 mg/kg body weight for experiments. In the control group, the vehicle solution (saline and DMSO (10%), intraperitoneal) was administered with the same time schedule.
The open field box consisted of a square, non-transparent, grey box (40 cm × 40 cm × 40 cm). Illumination intensity was kept at 50 lux. During a session, a single animal was allowed to explore the empty open field, and its baseline level of activity was measured. The session lasted for 10 min (Figure 5A). […] The number of standing events was manually counted in a blind manner by one observer. […]

HDAC6 = molecular target: T1, HDAC6 (Homo sapiens, UniProt Q9UBN7); assay: HDAC6 enzyme activity, FLUOR DE LYS fluorometric kit; format: biochemical; details: mean ± SEM; read-out: IC50 HDAC6 Inhibitory Activity
T1 construct: purchased Enzo Life Sciences (Enzo Biochem, New York, NY, USA)
T1 sequence (Q9UBN7 1-1215): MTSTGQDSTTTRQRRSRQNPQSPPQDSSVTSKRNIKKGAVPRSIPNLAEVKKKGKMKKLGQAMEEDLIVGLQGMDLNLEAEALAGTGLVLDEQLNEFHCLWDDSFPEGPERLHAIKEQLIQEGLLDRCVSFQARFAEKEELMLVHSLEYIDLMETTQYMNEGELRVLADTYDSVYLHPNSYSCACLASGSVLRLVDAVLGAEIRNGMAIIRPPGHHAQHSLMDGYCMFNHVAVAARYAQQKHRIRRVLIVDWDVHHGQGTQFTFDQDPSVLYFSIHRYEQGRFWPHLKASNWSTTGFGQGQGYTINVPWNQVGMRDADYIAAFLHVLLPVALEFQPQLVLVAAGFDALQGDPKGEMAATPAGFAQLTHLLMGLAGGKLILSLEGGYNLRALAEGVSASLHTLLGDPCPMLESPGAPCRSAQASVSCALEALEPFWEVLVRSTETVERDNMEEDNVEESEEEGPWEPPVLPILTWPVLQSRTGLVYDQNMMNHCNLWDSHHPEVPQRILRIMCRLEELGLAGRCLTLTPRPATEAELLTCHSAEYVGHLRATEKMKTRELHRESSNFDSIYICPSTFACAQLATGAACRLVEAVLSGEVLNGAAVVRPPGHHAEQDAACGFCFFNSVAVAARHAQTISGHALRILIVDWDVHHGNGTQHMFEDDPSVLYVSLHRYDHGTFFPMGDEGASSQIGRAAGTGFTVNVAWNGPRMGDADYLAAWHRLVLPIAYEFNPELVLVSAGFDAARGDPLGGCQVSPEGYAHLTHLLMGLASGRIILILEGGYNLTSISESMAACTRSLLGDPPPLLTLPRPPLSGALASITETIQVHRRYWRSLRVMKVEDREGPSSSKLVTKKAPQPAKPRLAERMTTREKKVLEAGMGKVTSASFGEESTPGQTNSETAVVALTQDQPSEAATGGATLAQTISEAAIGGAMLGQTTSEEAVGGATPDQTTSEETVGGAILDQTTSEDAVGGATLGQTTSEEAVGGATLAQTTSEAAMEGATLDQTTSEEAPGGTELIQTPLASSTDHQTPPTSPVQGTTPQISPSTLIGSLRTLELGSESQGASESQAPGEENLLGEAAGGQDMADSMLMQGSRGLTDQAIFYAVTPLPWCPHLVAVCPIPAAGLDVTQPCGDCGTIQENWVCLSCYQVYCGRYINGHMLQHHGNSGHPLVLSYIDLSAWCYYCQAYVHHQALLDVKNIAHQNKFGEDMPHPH

SMILES	Open field: standing events, distance, movement rate, time in central and peripheral areas (5xFAD transgenic mice)	IC50 (HDAC6)
O=C(/C=C/c1ccc(C(=O)NO)cc1)NC1C2CC3CC(C2)CC1C3 (stereo not shown) [compound 25, 4-((E)-3-((-Adamantan-2-yl)amino)-3-Oxoprop-1-en-1-yl)-N-Hydroxybenzamide]	did not show any alteration	6.52 ± 0.4 µM
O=C(CCCCCCC(=O)NC1C2CC3CC(C2)CC1C3)NO (stereo not shown) [compound 15, N^1-(Adamant-2-yl)-N^8-Hydroxyoctanediamide]	did not show any alteration	0.96 ± 0.01 µM
